Laboratory results reported in patent US20250034169A1, “NOVEL PYRIMIDOPYRIDINE COMPOUND, PHARMACEUTICAL COMPOSITION THEREOF, AND USE THEREOF” (SUNSHINE LAKE PHARMA CO., LTD., priority 2021, published 2025).

The molecules below were run against KRAS G12D-GTP & cRAF (Homo sapiens (Human), UniProt P01116, G12D) (assay: KRAS G12D/cRAF binding experiment (HTRF)). Settings: competitive binding.
Chain of KRAS G12D-GTP & cRAF (P01116-2 other isoform, or with tags, fused parts or gaps G12D): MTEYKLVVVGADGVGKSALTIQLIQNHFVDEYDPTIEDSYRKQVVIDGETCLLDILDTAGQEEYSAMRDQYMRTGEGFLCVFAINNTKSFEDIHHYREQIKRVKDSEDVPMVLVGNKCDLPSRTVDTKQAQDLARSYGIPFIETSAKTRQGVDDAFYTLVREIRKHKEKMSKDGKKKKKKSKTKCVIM
With `C#Cc1c(F)ccc2cc(O)cc(-c3nc(OCCC(F)(F)F)c4c(N5CC6CCC(C5)N6)nc(OC[C@@]56CCCN5C[C@H](F)C6)nc4c3F)c12` [Compound 9] the IC50 was 8.8 nM. Molecule `C#Cc1c(F)ccc2cc(O)cc(-c3nc(OCCOC)c4c(N5CC6CCC(C5)N6)nc(OC[C@@]56CCCN5C[C@H](F)C6)nc4c3F)c12` [Compound 10] has an IC50 of 8.7 nM. Work on `[2H]C([2H])([2H])c1nc(-c2cc(O)cc3ccc(F)c(C#C)c23)c(F)c2nc(OC[C@@]34CCCN3C[C@H](F)C4)nc(N3CC4CCC(C3)N4)c12` [Compound 11] yielded an IC50 of 9.2 nM. For `C#Cc1c(F)ccc2cc(O)cc(-c3nc(COC)c4c(N5CC6CCC(C5)N6)nc(OC[C@@]56CCCN5C[C@H](F)C6)nc4c3F)c12` [Compound 12], the IC50 was 9.7 nM. With `C#Cc1c(F)ccc2cc(O)cc(-c3nc(C(=O)OCC)c4c(N5CC6CCC(C5)N6)nc(OC[C@@]56CCCN5C[C@H](F)C6)nc4c3F)c12` [Compound 13] the IC50 was 5.1 nM. Work on `C#Cc1c(F)ccc2cc(O)cc(-c3nc(C#CCC)c4c(N5CC6CCC(C5)N6)nc(OC[C@@]56CCCN5C[C@H](F)C6)nc4c3F)c12` [Compound 24] yielded an IC50 of 13.6 nM. `C#Cc1c(F)ccc2cc(O)cc(-c3nc(C#CCOC)c4c(N5CC6CCC(C5)N6)nc(OC[C@@]56CCCN5C[C@H](F)C6)nc4c3F)c12` [Compound 25] showed an IC50 of 15 nM. With `C#Cc1c(F)ccc2cc(O)cc(-c3nc(C#CC4CCCC4)c4c(N5CC6CCC(C5)N6)nc(OC[C@@]56CCCN5C[C@H](F)C6)nc4c3F)c12` [Compound 28] the IC50 was 11.1 nM. Molecule `C#Cc1c(F)ccc2cc(O)cc(-c3nc(C#CCC(C)C)c4c(N5CC6CCC(C5)N6)nc(OC[C@@]56CCCN5C[C@H](F)C6)nc4c3F)c12` [Compound 29] has an IC50 of 14.7 nM. `C#Cc1c(F)ccc2cc(O)cc(-c3nc(C#CCCC(C)C)c4c(N5CC6CCC(C5)N6)nc(OC[C@@]56CCCN5C[C@H](F)C6)nc4c3F)c12` [Compound 30] showed an IC50 of 8.8 nM. `C#Cc1c(F)ccc2cc(O)cc(-c3nc(C#CCCC#N)c4c(N5CC6CCC(C5)N6)nc(OC[C@@]56CCCN5C[C@H](F)C6)nc4c3F)c12` [Compound 31] was tested, and the IC50 was 24.6 nM. Work on `C#Cc1c(F)ccc2cc(O)cc(-c3nc(C#C)c4c(N5CC6CC(C5)N6)nc(OC[C@@]56CCCN5C[C@H](F)C6)nc4c3F)c12` [Compound 41] yielded an IC50 of 22 nM. `C#Cc1c(F)ccc2cc(O)cc(-c3nc(C#C)c4c(N5CCN[C@@H](C)C5)nc(OC[C@@]56CCCN5C[C@H](F)C6)nc4c3F)c12` [Compound 43] showed an IC50 of 16.3 nM. Work on `C#Cc1c(F)ccc2cc(O)cc(-c3nc(C#C)c4c(N5C[C@@H]6C[C@H]5CN6)nc(OC[C@@]56CCCN5C[C@H](F)C6)nc4c3F)c12` [Compound 44] yielded an IC50 of 15.2 nM.

Each molecule was assayed against KRAS G12D-GTP & SOS1 (Homo sapiens (Human), UniProt P01116, G12D) (assay: KRAS G12D/SOS1 binding experiment (HTRF)). Settings: competitive binding.
Chain of KRAS G12D-GTP & SOS1 (P01116-2 other isoform, or with tags, fused parts or gaps G12D): as above
`C#Cc1c(F)ccc2cc(O)cc(-c3nc(OCCC(F)(F)F)c4c(N5CC6CCC(C5)N6)nc(OC[C@@]56CCCN5C[C@H](F)C6)nc4c3F)c12` [Compound 9] gave an IC50 of 12.6 nM. In the case of `C#Cc1c(F)ccc2cc(O)cc(-c3nc(OCCOC)c4c(N5CC6CCC(C5)N6)nc(OC[C@@]56CCCN5C[C@H](F)C6)nc4c3F)c12` [Compound 10], the IC50 is reported as 13.9 nM. In the case of `[2H]C([2H])([2H])c1nc(-c2cc(O)cc3ccc(F)c(C#C)c23)c(F)c2nc(OC[C@@]34CCCN3C[C@H](F)C4)nc(N3CC4CCC(C3)N4)c12` [Compound 11], the IC50 is reported as 19.8 nM. Work on `C#Cc1c(F)ccc2cc(O)cc(-c3nc(COC)c4c(N5CC6CCC(C5)N6)nc(OC[C@@]56CCCN5C[C@H](F)C6)nc4c3F)c12` [Compound 12] yielded an IC50 of 10.3 nM. `C#Cc1c(F)ccc2cc(O)cc(-c3nc(C(=O)OCC)c4c(N5CC6CCC(C5)N6)nc(OC[C@@]56CCCN5C[C@H](F)C6)nc4c3F)c12` [Compound 13] showed an IC50 of 11.3 nM. For `C#Cc1c(F)ccc2cc(O)cc(-c3nc(C#CCC)c4c(N5CC6CCC(C5)N6)nc(OC[C@@]56CCCN5C[C@H](F)C6)nc4c3F)c12` [Compound 24], the IC50 was 15.1 nM. Molecule `C#Cc1c(F)ccc2cc(O)cc(-c3nc(C#CCOC)c4c(N5CC6CCC(C5)N6)nc(OC[C@@]56CCCN5C[C@H](F)C6)nc4c3F)c12` [Compound 25] has an IC50 of 16.8 nM. `C#Cc1c(F)ccc2cc(O)cc(-c3nc(C#CC4CCCC4)c4c(N5CC6CCC(C5)N6)nc(OC[C@@]56CCCN5C[C@H](F)C6)nc4c3F)c12` [Compound 28] gave an IC50 of 11.5 nM. `C#Cc1c(F)ccc2cc(O)cc(-c3nc(C#CCC(C)C)c4c(N5CC6CCC(C5)N6)nc(OC[C@@]56CCCN5C[C@H](F)C6)nc4c3F)c12` [Compound 29] gave an IC50 of 15.9 nM. `C#Cc1c(F)ccc2cc(O)cc(-c3nc(C#CCCC(C)C)c4c(N5CC6CCC(C5)N6)nc(OC[C@@]56CCCN5C[C@H](F)C6)nc4c3F)c12` [Compound 30] was tested, and the IC50 was 13.4 nM. Work on `C#Cc1c(F)ccc2cc(O)cc(-c3nc(C#CCCC#N)c4c(N5CC6CCC(C5)N6)nc(OC[C@@]56CCCN5C[C@H](F)C6)nc4c3F)c12` [Compound 31] yielded an IC50 of 34.6 nM. For `C#Cc1c(F)ccc2cc(O)cc(-c3nc(C#C)c4c(N5CC6CC(C5)N6)nc(OC[C@@]56CCCN5C[C@H](F)C6)nc4c3F)c12` [Compound 41], the IC50 was 31.4 nM. `C#Cc1c(F)ccc2cc(O)cc(-c3nc(C#C)c4c(N5CCN[C@@H](C)C5)nc(OC[C@@]56CCCN5C[C@H](F)C6)nc4c3F)c12` [Compound 43] showed an IC50 of 24.1 nM. `C#Cc1c(F)ccc2cc(O)cc(-c3nc(C#C)c4c(N5C[C@@H]6C[C@H]5CN6)nc(OC[C@@]56CCCN5C[C@H](F)C6)nc4c3F)c12` [Compound 44] gave an IC50 of 29.6 nM.

The molecules below were run on intracellular pERK (assay: Inhibitory effect on intracellular pERK, In-Cell Western, AGS cells). Settings: Homo sapiens, AGS, 3 h, read-out: Inhibitory effect on intracellular pERK, IC50.
Format: cell-based
Work on `C#Cc1c(F)ccc2cc(O)cc(-c3nc(C#CCC)c4c(N5CC6CCC(C5)N6)nc(OC[C@@]56CCCN5C[C@H](F)C6)nc4c3F)c12` [Compound 24] yielded an IC50 of 0.2 nM. In the case of `C#Cc1c(F)ccc2cc(O)cc(-c3nc(C#CCOC)c4c(N5CC6CCC(C5)N6)nc(OC[C@@]56CCCN5C[C@H](F)C6)nc4c3F)c12` [Compound 25], the IC50 is reported as 0.8 nM.

Same assay, conditions: Homo sapiens; AGS cells, 3 h incubation, In-Cell Western; read-out: Inhibitory effect on intracellular pERK, IC50
`C#Cc1c(F)ccc2cc(O)cc(-c3nc(OCCC(F)(F)F)c4c(N5CC6CCC(C5)N6)nc(OC[C@@]56CCCN5C[C@H](F)C6)nc4c3F)c12` [Compound 9] was tested, and the IC50 was 0.6 nM. In the case of `C#Cc1c(F)ccc2cc(O)cc(-c3nc(C#CCC(C)C)c4c(N5CC6CCC(C5)N6)nc(OC[C@@]56CCCN5C[C@H](F)C6)nc4c3F)c12` [Compound 29], the IC50 is reported as 1 nM. Molecule `C#Cc1c(F)ccc2cc(O)cc(-c3nc(C#CCCC(C)C)c4c(N5CC6CCC(C5)N6)nc(OC[C@@]56CCCN5C[C@H](F)C6)nc4c3F)c12` [Compound 30] has an IC50 of 0.8 nM.
